Reference: patent US20050250677A1, “Glycopeptide antibiotic derivatives” (priority 2002, published 2005)
Where two headings read alike, the source gives them in different places.

Legend:
murine leukemia L1210 = assay: Cytostatic activity assay, L1210 cells; assay type: cell-based; settings: read-out: IC50 L1210 (compound concentration required to inhibit tumor cell proliferation by 50%)
HIV-2(ROD) = assay: Inhibition of HIV-2 (ROD)-induced cytopathicity (giant cell formation) in CEM cells; assay type: cell-based; settings: read-out: EC50 HIV-2 (concentration required to inhibit HIV-induced giant cell formation by 50%); HIV-2, CEM cell cultures
Procedure: (§1) A variety of glycopeptide antibiotic derivatives of vancomycin, eremomycin and teicoplanin including their aglycon derivatives were evaluated for their inhibitory activity against HIV-1 (IIIB) and HIV-2(ROD) in CEM cell cultures.

human lymphocyte CEM = assay: Cytostatic activity assay, CEM cells; assay type: cell-based; settings: read-out: IC50 CEM (compound concentration required to inhibit tumor cell proliferation by 50%)
FCK cells = settings: read-out: CC50 FCK; FCK cells
FCV = assay: Feline corona virus assay in Feline Crandel kidney cells (MTS); assay type: cell-based; settings: for EC50: FCV in FCK cells, read-out: EC50 FCV
Procedure: Feline Crandel kidney cells were seeded in 96-well microtiter plates at 24,000 cells/well. Then, 24 hrs later, an appropriate inoculum of FCV is added together with 5-fold dilutions of the test compounds. After 4 days, a MTS/PMS solution was added to each well. Following a 90 min incubation period at 37° C., the optical density of the wells was read at 498 nm in a microplate reader.

[1] = system: human lymphocyte Molt4/clone 8; assay: Cytostatic activity assay, Molt4/clone 8 cells; assay type: cell-based; settings: read-out: IC50 Molt4/C8 (compound concentration required to inhibit tumor cell proliferation by 50%)
HIV-1 (IIIB) = assay: Inhibition of HIV-1 (IIIB)-induced cytopathicity (giant cell formation) in CEM cells; assay type: cell-based; settings: read-out: EC50 HIV-1 (concentration required to inhibit HIV-induced giant cell formation by 50%); HIV-1, CEM cell cultures
Procedure: as §1

HEL cells [2] = settings: read-out: CC50 (HEL); HEL cells; anti-VZV table
VZV (wild-type strains) = assay: Anti-VZV assay (wild-type strains): virus-induced cytopathicity in HEL cell cultures; assay type: cell-based, varicella-zoster virus; settings: HEL cell cultures
HEL cells [3] = settings: anti-VZV table
[4] = VZV strain OKA, read-out: EC50 VZV (OKA)
[5] = VZV strain YS, read-out: EC50 VZV (YS)

SMILES | IC50 (murine leukemia L1210) [µM] | EC50 (HIV-2(ROD)) [µM] | IC50 (human lymphocyte CEM) [µM] | CC50 (FCK cells) [µM] | activity against FCV (FCV) | EC50 (FCV) [µM] | IC50 [1] [µM] | EC50 (HIV-1 (IIIB)) [µM] | CC50 (HEL cells [2]) [µM] | EC50 (VZV (wild-type strains); [4]) [µM] | EC50 (VZV (wild-type strains); [5]) [µM] | MTC (HEL) (HEL cells [3])
CCCCc1ccc(CNC2C(Oc3c4cc5cc3Oc3ccc(cc3Cl)C(O)C3NC(=O)C(NC(=O)C5NC(=O)C5NC(=O)C(Cc6ccc(cc6)O4)NC(=O)C(NC)c4ccc(O)c(c4)Oc4cc(O)c(Cl)c5c4)c4ccc(O)c(c4)-c4c(cc(O)c(CN5CCN(Cc6ccc(-c7ccccc7)cc6)CC5)c4O)C(C(=O)NCCCN(C)C)NC3=O)OC(C(=O)NCCCN(C)C)C(O)C2O)cc1 (stereo not drawn) [Compound 13] | 25 ± 0.7 | 20 | 212 ± 54 | 30 | pronounced activity | 5.9 | 35 ± 6.1 | 3.5 ± 2.1 | – | – | – | –
NC1C(=O)NC2Cc3ccc(c(Cl)c3)Oc3cc4cc(c3O)Oc3ccc(cc3Cl)C(O)C3NC(=O)C(NC(=O)C4NC(=O)C(NC2=O)c2cc(O)cc(c2)Oc2cc1ccc2O)c1ccc(O)c(c1)-c1c(cc(O)c(CN2CCN(N=Cc4ccc(Cl)cc4)CC2)c1O)C(C(=O)O)NC3=O (stereo not drawn) [Compound 17] | 97 ± 4.3 | 22 ± 3.5 | > 100 | – | – | – | > 100 | 8 ± 2.8 | > 50 | 4.1 | 4.2 | ≧20-200 μM
CCCCCCCCCCNC(=O)C1NC(=O)C2NC(=O)C(NC(=O)C3NC(=O)C4NC(=O)C(Cc5ccc(c(Cl)c5)Oc5cc3cc(c5O)Oc3ccc(cc3Cl)C2O)NC(=O)C(N)c2ccc(O)c(c2)Oc2cc(O)cc4c2)c2ccc(O)c(c2)-c2c1cc(O)c(CNCCCN(C)C)c2O (stereo not drawn) [Compound 20] | 17 ± 9 | 44 ± 1.4 | 53 ± 11 | – | – | – | 58 ± 12 | 4.5 ± 0.7 | 169 | 2 | 2.3 | ≧5-20 μM
CCCCCCCCCCNCc1c(O)cc2c(c1O)-c1cc(ccc1O)C1NC(=O)C3NC(=O)C4NC(=O)C(Cc5ccc(c(Cl)c5)Oc5cc3cc(c5O)Oc3ccc(cc3Cl)C(O)C(NC1=O)C(=O)NC2C(=O)NC)NC(=O)C(NC(=O)C(N)CCCCN)c1ccc(O)c(c1)Oc1cc(O)cc4c1 (stereo not drawn) [Compound 24] | 12 ± 6 | 6 | 46 ± 8 | – | – | – | 41 ± 8 | 4 | 87 | 1.2 | 1.9 | ≧5 μM
CCCCCCCCCCCNC1C(=O)NC2Cc3ccc(c(Cl)c3)Oc3cc4cc(c3O)Oc3ccc(cc3Cl)C(O)C3NC(=O)C(NC(=O)C4NC(=O)C(NC2=O)c2cc(O)cc(c2)Oc2cc1ccc2O)c1ccc(O)c(c1)-c1c(O)cc(O)cc1C(C(=O)NCCCN(C)C)NC3=O (stereo not drawn) [Compound 32] | 23 ± 7 | 12.5 ± 3.5 | 90 ± 27 | – | – | – | 35 ± 2 | 5.5 ± 2.1 | 30 | ≥ 5 | 2.3 | 20 µM
CCCCCCCCCC[N+](C)(C)CCCNCc1c(O)cc2c(c1O)-c1cc(ccc1O)C1NC(=O)C3NC(=O)C4NC(=O)C(Cc5ccc(c(Cl)c5)Oc5cc3cc(c5O)Oc3ccc(cc3Cl)C(O)C(NC1=O)C(=O)NC2C(=O)O)NC(=O)C(N)c1ccc(O)c(c1)Oc1cc(O)cc4c1 (stereo not drawn) [Compound 33] | 51 ± 26 | 7.5 ± 0.7 | 74 ± 5 | – | – | – | 65 ± 1 | 2.2 | ≥ 200 | ≥ 5 | 2.4 | 5 to 50 µM
CCCCCCCCCC[N+](C)(C)CCCNCc1c(O)cc2c(c1O)-c1cc(ccc1O)C1NC(=O)C3NC(=O)C4NC(=O)C(Cc5ccc(c(Cl)c5)Oc5cc3cc(c5O)Oc3ccc(cc3Cl)C(O)C(NC1=O)C(=O)NC2C(=O)NCCO)NC(=O)C(N)c1ccc(O)c(c1)Oc1cc(O)cc4c1 (stereo not drawn) [Compound 36] | 12 ± 0.1 | 4.2 ± 2.47 | ≥ 100 | – | – | – | 73 ± 34 | 2.1 ± 0.14 | > 200 | ≥ 5 | 1.9 | ≧20-50 μM
CCCCc1ccc(CNCc2c(O)cc3c(c2O)-c2cc(ccc2O)C2NC(=O)C4NC(=O)C5NC(=O)C(Cc6ccc(c(Cl)c6)Oc6cc4cc(c6O)Oc4ccc(cc4Cl)C(O)C(NC2=O)C(=O)NC3C(=O)NC)NC(=O)C(NC(=O)OC(C)(C)C)c2ccc(O)c(c2)Oc2cc(O)cc5c2)cc1 (stereo not drawn) [Compound 47] | 70 ± 23 | 12 ± 5.2 | > 100 | > 50 | – | 16 | > 100 | 6 ± 1 | – | – | – | –
NC1C(=O)NC2Cc3ccc(c(Cl)c3)Oc3cc4cc(c3O)Oc3ccc(cc3Cl)C(O)C3NC(=O)C(NC(=O)C4NC(=O)C(NC2=O)c2cc(O)cc(c2)Oc2cc1ccc2O)c1ccc(O)c(c1)-c1c(cc(O)c(CNC2C4CC5CC(C4)CC2C5)c1O)C(C(=O)NC1C2CC4CC(C2)CC1C4)NC3=O (stereo not drawn) [Compound 52] | 202 ± 68 | 3.5 ± 2.1 | > 250 | > 50 | – | 14 | > 250 | 2.5 ± 0.7 | – | – | – | –
CCCCCCCCCCCCCCCCCCNCc1c(O)cc2c(c1O)-c1cc(ccc1O)C1NC(=O)C3NC(=O)C(CC(N)=O)NC(=O)C(NC(=O)C(CC(C)C)NC)C(O)c4ccc(c(Cl)c4)Oc4cc3cc(c4OC3OC(CO)C(O)C(O)C3OC3CC(C)(N)C(O)C(C)O3)Oc3ccc(cc3)C(OC3CC(C)(N)C(O)C(C)O3)C(NC1=O)C(=O)NC2C(=O)O (stereo not drawn) [Compound 63] | – | – | – | 15 | active | 3.4 | – | – | – | – | – | –
CNC(CC(C)C)C(=O)NC1C(=O)NC(CC(N)=O)C(=O)NC2C(=O)NC3C(=O)NC(C(=O)NC(C(=O)NCC45CC6CC(CC(C6)C4)C5)c4cc(O)cc(O)c4-c4cc3ccc4O)C(O)c3ccc(cc3)Oc3cc2cc(c3O)Oc2ccc(cc2Cl)C1O (stereo not drawn) [Compound 99] | 94 ± 15 | 7 | 148 ± 3 | ≥ 100 | pronounced activity | 23 | 126 ± 11 | 1.6 ± 0.36 | – | – | – | –
CNC(CC(C)C)C(=O)NC1C(=O)NC(CC(N)=O)C(=O)NC2C(=O)NC3C(=O)NC(C(=O)NC(C(=O)NCc4ccc(F)cc4)c4cc(O)cc(O)c4-c4cc3ccc4O)C(O)c3ccc(cc3)Oc3cc2cc(c3O)Oc2ccc(cc2Cl)C1O (stereo not drawn) [Compound 100] | > 250 | > 125 | > 250 | > 100 | pronounced activity | 20 | > 250 | 41.7 ± 20.2 | – | – | – | –
CNC(CC(C)C)C(=O)NC1C(=O)NC(CC(N)=O)C(=O)NC2C(=O)NC3C(=O)NC(C(=O)NC(C(=O)N4CCC5CCCCC5C4)c4cc(O)cc(O)c4-c4cc3ccc4O)C(O)c3ccc(cc3)Oc3cc2cc(c3O)Oc2ccc(cc2Cl)C1O (stereo not drawn) [Compound 101] | > 250 | > 125 | > 250 | > 100 | pronounced activity | 47 | > 250 | 63.3 ± 53.5 | – | – | – | –
NC(=O)CC1NC(=O)C(N)C(O)c2ccc(c(Cl)c2)Oc2cc3cc(c2O)Oc2ccc(cc2)C(O)C2NC(=O)C(NC(=O)C3NC1=O)c1ccc(O)c(c1)-c1c(O)cc(O)cc1C(C(=O)NCc1ccc(F)cc1)NC2=O (stereo not drawn) [Compound 106] | – | 30 | – | > 300 | – | 74 | – | 27 | – | – | – | –
NC(=O)CC1NC(=O)C(N)C(O)c2ccc(c(Cl)c2)Oc2cc3cc(c2O)Oc2ccc(cc2)C(O)C2NC(=O)C(NC(=O)C3NC1=O)c1ccc(O)c(c1)-c1c(O)cc(O)cc1C(C(=O)NCC13CC4CC(CC(C4)C1)C3)NC2=O (stereo not drawn) [Compound 107] | – | 3.5 | – | > 300 | – | 40 | – | 5 | – | – | – | –
NC(=O)CC1NC(=O)C(N)C(O)c2ccc(c(Cl)c2)Oc2cc3cc(c2O)Oc2ccc(cc2)C(O)C2NC(=O)C(NC(=O)C3NC1=O)c1ccc(O)c(c1)-c1c(O)cc(O)cc1C(C(=O)N1CCC3CCCCC3C1)NC2=O (stereo not drawn) [Compound 108] | – | 2 | – | > 300 | – | 81 | – | 2.8 | – | – | – | –
NC(=O)CC1NC(=O)C(NC(=O)C(N)Cc2c[nH]c3ccccc23)C(O)c2ccc(c(Cl)c2)Oc2cc3cc(c2O)Oc2ccc(cc2)C(O)C2NC(=O)C(NC(=O)C3NC1=O)c1ccc(O)c(c1)-c1c(O)cc(O)cc1C(C(=O)O)NC2=O [Compound 109, N-(D-Trp)-(de-N-Me-D-Leu)eremomycin aglycon] | > 250 | 42.5 ± 10.6 | > 250 | > 100 | pronounced activity | 28 | > 250 | 7.3 ± 0.58 | – | – | – | –
